In patent US20230159484A1, “FLUORESCENT DYES HAVING HIGH STOKES SHIFT, ON THE BASIS OF BRIDGED BENZOPYRYLIUM SALTS” (DYOMICS GmbH, priority 2020, published 2023) one finds ε, λmax and λem data, which are given here for 20 compounds.

Where “and” joins values, the source holds several entries; their conditions need not be identical. Equal entries are not always repeated.

Data set [1] can be described thus: UV-Vis absorption (absorption maximum, extinction coefficient). Type of data set: physicochemical. The procedure: (§1) Depending on the basic structure and substitution, the absorption maxima lie in the entire range of visible light, with a focus at 500-530 nm. The compounds show a high Stokes shift in the range of 80 nm. The absorption is measured, for example, at 25° C. in aqueous or ethanolic solutions with an extinction of 1.0 using a Specord 205 from Analytik Jena, wherein the aqueous solutions are preferably phosphate-buffered salt solutions (PBS buffer; approx. 100 mM sodium chloride and 100 mM total phosphate) and have a pH of 7.5. For example, the emission is measured at 25° C. in dilute aqueous or ethanolic solutions with an extinction of 0.1 using a FP-6600 spectrofluorometer from Jasco, wherein the dilute aqueous solutions are preferably phosphate-buffered salt solutions (PBS buffer; about 100 mM sodium chloride and 100 mM total phosphate) and have a pH of 7.5.

Data set [2] is described as follows: Fluorescence emission (emission maximum). Type of data set: physicochemical. The procedure: as §1

Turning to `CCN(CCCCCC(=O)O)c1ccc2cc3c([o+]c2c1)C=C(Nc1cccc(N(C)C)c1)CC3(C)C.[Cl-]` [Compound 26, 6-[[6-[3-(dimethylamino)anilino]-8,8-dimethyl-7H-xanthene-10-ium-3-yl]-ethyl-amino]hexanoic Acid Chloride Salt], in data set [1] (UV-Vis in ethanol), the ε is listed as 34,000 l/mol*cm and the λmax worked out at 531 nm. Moreover, the λem in data set [2] (in ethanol) is on record as 573 nm.
In the case of `CC1=CC(C)(C)N(CCCCCC(=O)O)c2cc3c(cc21)C=C1C(=C(S(=O)(=O)[O-])C(=O)CC1(C)C)O3.[Na+]` [Compound 42, 1-(5-carboxypentyl)-2,2,4,7,7-pentamethyl-9-oxo-8H-chromeno[3,2-g]quinoline-10-sulfonate Sodium Salt], the ε is listed as 28,000 l/mol*cm in data set [1] (UV-Vis in PBS) and 30,000 l/mol*cm in data set [1] (UV-Vis in ethanol). In addition, the λmax worked out at 487 nm in data set [1] (UV-Vis in PBS) and 473 nm in data set [1] (UV-Vis in ethanol). Besides, the λem in data set [2] (in PBS) was determined as 578 nm; in data set [2] (in ethanol), 559 nm.
For the compound `CCN(CC)c1ccc2c(c1)OC1=C/C(=C/C=C3/C(=O)N(CCCCCC(=O)O)C(=O)N(CCCS(=O)(=O)[O-])C3=O)CC(C)(C)C1=C2.[Na+]` [Compound 33, 3-[(5Z)-3-(5-carboxypentyl)-5-[(2E)-2-[6-(diethylamino)-1,1-dimethyl-2H-xanthene-3-ylidene]ethylidene]-2,4,6-trioxo-hexahydropyrimidin-1-yl]propane-1-sulfonate Sodium Salt], in data set [1] (UV-Vis in ethanol), the ε is 67,000 l/mol*cm and the λmax was 683 nm. The compound also gave a λem in data set [2] (in ethanol) of 719 nm.
As to `CCN(CCCCCC(=O)O)c1ccc2cc3c([o+]c2c1)C=C(Nc1ccccc1)CC3(C)C.[Cl-]` [Compound 13, 6-[(6-anilino-8,8-dimethyl-7H-xanthene-10-ium-3-yl)-ethyl-amino]hexanoic Acid Chloride Salt], the ε is listed as 38,000 l/mol*cm in data set [1] (UV-Vis in PBS) and 44,000 l/mol*cm in data set [1] (UV-Vis in ethanol). Besides, the results for the λmax in data set [1] (UV-Vis in PBS) and in data set [1] (UV-Vis in ethanol) were 526 nm and 532 nm, respectively. For the same compound, the results for the λem in data set [2] (in PBS) and in data set [2] (in ethanol) were 609 nm and 603 nm, respectively.
As to `CC1(C)CC(NCCCS(=O)(=O)[O-])=Cc2[o+]c3cc(N(CCCCCC(=O)ON4C(=O)CCC4=O)CCCS(=O)(=O)[O-])ccc3cc21.[Na+]` [Compound 6, 3-[[6-[[6-(2,5-dioxopyrrolidine-1-yl)oxy-6-oxo-hexyl]-(3-sulfonatopropyl)amino]-1,1-dimethyl-2H-xanthene-10-ium-3-yl]amino]propane-1-sulfonate Sodium Salt], in data set [1] (UV-Vis in ethanol), the ε was 44,000 l/mol*cm and the λmax is on record as 512 nm. In data set [2] (in ethanol), this compound yielded a λem of 570 nm.
On to `CC1=CC(C)(C)N(CCCCCC(=O)O)c2cc3c(cc21)C=C1C(=CC(=O)CC1(C)C)O3` [Compound 41, 6-(2,2,4,7,7-pentamethyl-9-oxo-8H-chromeno[3,2-g]quinolin-1-yl)hexanoic Acid], for which the ε is listed as 23,000 l/mol*cm in data set [1] (UV-Vis in PBS) and 24,000 l/mol*cm in data set [1] (UV-Vis in ethanol). In addition, the λmax in data set [1] (UV-Vis in PBS) is listed as 460 nm; in data set [1] (UV-Vis in ethanol) it was 463 nm. The λem came to 575 nm in data set [2] (in PBS) and 557 nm in data set [2] (in ethanol).
With `CCN(CC)c1ccc2cc3c([o+]c2c1)C=C(/C=C/C=C1/N(CCCCCC(=O)O)c2ccc(S(=O)(=O)[O-])cc2C1(C)C)CC3(C)C` [Compound 32, (2E)-1-(5-sarboxypentyl)-2-[(E)-3-[6-(diethylamino)-1,1-dimethyl-2H-xantheneium-3-yl]prop-2-enyliden]-3,3-dimethyl-indoline-5-sulfonate], the ε was 75000 L/mol/cm in data set [1] (UV-Vis in PBS) and 143,600 l/mol*cm in data set [1] (UV-Vis in ethanol). The λmax in data set [1] (UV-Vis in PBS) came to 755 nm; in data set [1] (UV-Vis in ethanol), 770 nm. Besides, the λem in data set [2] (in PBS) is reported as 788 nm; in data set [2] (in ethanol), 795 nm.
In turn, `CCOC1=Cc2[o+]c3cc(N(CC)CC)ccc3cc2C(C)(C)C1.F[B-](F)(F)F` [Compound 2, 6-ethoxy-N,N-diethyl-8,8-dimethyl-7H-xanthene-10-ium-3-amine tetrafluoroborate] registered a λmax in data set [1] (UV-Vis in ethanol) of 531 nm. This compound also gave a λem in data set [2] (in ethanol) of 605 nm.
Consider `CCN(CCCCCC(=O)O)c1ccc2c(c1)OC1=Cc3[o+]c4cc(OC)ccc4cc3C(C)(C)C1=C2.[Cl-]` [Compound 48, 6-[ethyl-(3-methoxy-13,13-dimethyl-chromeno[3,2-b]xanthene-5-ium-9-yl)amino]hexanoic Acid Chloride Salt], for which, in data set [1] (UV-Vis in ethanol), the ε is 53,000 l/mol*cm and the λmax is on record as 654 nm. In data set [2] (in ethanol), this compound came in with a λem of 712 nm.
On to `CCN(CC)c1ccc2cc3c([o+]c2c1)C=C1Oc2cc(N(CC)CCCCCC(=O)O)ccc2C=C1C3(C)C.[Cl-]` [Compound 47, 6-[[9-(diethylamino)-13,13-dimethyl-chromeno[3,2-b]xanthene-7-ium-3-yl]-ethyl-amino]hexanoic Acid Chloride Salt], for which the values for the ε in data set [1] (UV-Vis in PBS) and in data set [1] (UV-Vis in ethanol) were 37000 L/mol/cm and 80,300 l/mol*cm, respectively. In addition, the λmax came out at 670 nm in data set [1] (UV-Vis in PBS) and 679 nm in data set [1] (UV-Vis in ethanol). The λem in data set [2] (in PBS) was found to be 710 nm; in data set [2] (in ethanol) it was 713 nm.
As for `CN(C1=Cc2[o+]c3cc(OCCCCCC(=O)O)c(S(=O)(=O)[O-])cc3cc2C(C)(C)C1)c1ccc(S(=O)(=O)[O-])cc1.[Na+]` [Compound 19, 3-(5-carboxypentoxy)-8,8-dimethyl-6-(N-methyl-4-sulfonato-anilino)-7H-xanthene-10-ium-2-sulfonate Sodium Salt], the values for the ε in data set [1] (UV-Vis in PBS) and in data set [1] (UV-Vis in ethanol) were 16500 L/mol/cm and 18,000 l/mol*cm, respectively. The λmax in data set [1] (UV-Vis in PBS) worked out at 460 nm; in data set [1] (UV-Vis in ethanol), 465 nm. The λem turned out to be 509 nm in data set [2] (in PBS) and 522 nm in data set [2] (in ethanol).
For the compound `CCN(CCCCCC(=O)O)c1ccc2cc3c([o+]c2c1)C=C(/C=C1\C=CC=CN1)CC3(C)C.[Cl-]` [Compound 29, 6-[[8,8-dimethyl-6-[(E)-1H-pyridine-2-ylidenemethyl]-7H-xanthene-10-ium-3-yl]-ethyl-amino]hexanoic Acid Chloride Salt], in data set [1] (UV-Vis in ethanol), the ε is 24,000 l/mol*cm and the λmax is 434 nm. Besides, the λem in data set [2] (in ethanol) turned out to be 541 nm.
On the same counts, the results for `CCN(CCCCCC(=O)O)c1ccc2cc3c([o+]c2c1)C=C(c1ccc(N(C)C)cc1)CC3(C)C.[Cl-]` [Compound 30, 6-[[6-[4-(dimethylamino)phenyl]-8,8-dimethyl-7H-xanthene-10-ium-3-yl]-ethyl-amino]hexanoic Acid Chloride Salt] are 30,000 l/mol*cm, 664 nm and 713 nm.
On the same counts, the results for `CCN(CC)c1ccc2cc3c([o+]c2c1)C=C(C)CC3(C)C.[Cl-]` [Compound 31] are 9,800 l/mol*cm, 538 nm and 628 nm.
`CC1=CC(C)(C)N(CCCS(=O)(=O)[O-])c2cc3[o+]c4c(cc3cc21)C(C)(C)CC(NCCCCCC(=O)O)=C4` [Compound 22, 3-[9-(5-carboxypentylamino)-2,2,4,7,7-pentamethyl-8H-chromeno[3,2-g]quinolin-11-ium-1-yl]propane-1-sulfonate]: the figures for the ε in data set [1] (UV-Vis in PBS) and in data set [1] (UV-Vis in ethanol) were 37500 L/mol/cm and 39,000 l/mol*cm, respectively. The values for the λmax in data set [1] (UV-Vis in PBS) and in data set [1] (UV-Vis in ethanol) were 516 nm and 531 nm, respectively. Moreover, the λem in data set [2] (in PBS) was 590 nm; in data set [2] (in ethanol), 589 nm.
Consider `CCN(CC)c1ccc2c(c1)OC1=CC(=O)CC(C)(C)C1=C2` [Compound 34, 6-(diethylamino)-1,1-dimethyl-2H-xanthene-3-one], for which the ε in data set [1] (UV-Vis in PBS) was 23000 L/mol/cm; in data set [1] (UV-Vis in ethanol), 24,800 l/mol*cm. In addition, the λmax in data set [1] (UV-Vis in PBS) turned out to be 450 nm; in data set [1] (UV-Vis in ethanol), 440 nm. The λem in data set [2] (in PBS) came to 558 nm; in data set [2] (in ethanol) it was 540 nm.
`CCN(CCCCCC(=O)O)c1ccc2cc3c([o+]c2c1)C=C(Nc1ccc(N)cc1)CC3(C)C.[Cl-]` [Compound 27, 6-[[6-(4-aminoanilino)-8,8-dimethyl-7H-xanthene-10-ium-3-yl]-ethyl-amino]hexanoic Acid Chloride Salt]: in data set [1] (UV-Vis in ethanol), the ε was 35,000 l/mol*cm and the λmax was found to be 530 nm. Also, the λem in data set [2] (in ethanol) came out at 612 nm.
On to `CC1(C)CC(=O)C(S(=O)(=O)[O-])=C2Oc3cc(OCCCCCC(=O)O)ccc3C=C21.[Na+]` [Compound 40, 6-(5-carboxypentoxy)-1,1-dimethyl-3-oxo-2H-xanthene-4-sulfonate Sodium Salt], for which the ε is on record as 21,000 l/mol*cm in data set [1] (UV-Vis in PBS) and 19,500 l/mol*cm in data set [1] (UV-Vis in ethanol). Moreover, the λmax was found to be 407 nm in data set [1] (UV-Vis in PBS) and 403 nm in data set [1] (UV-Vis in ethanol). Also, the figures for the λem in data set [2] (in PBS) and in data set [2] (in ethanol) were 483 nm and 487 nm, respectively.
With `CC1(C)CC(=O)C=C2Oc3cc(N(CCCCCC(=O)O)CCCS(=O)(=O)[O-])ccc3C=C21.[Na+]` [Compound 37, 3-[5-carboxypentyl-(8,8-dimethyl-6-oxo-7H-xanthene-3-yl)amino]propane-1-sulfonate Sodium Salt], the figures for the ε in data set [1] (UV-Vis in PBS) and in data set [1] (UV-Vis in ethanol) were 26,000 l/mol*cm and 27,000 l/mol*cm, respectively. The λmax in data set [1] (UV-Vis in PBS) is on record as 454 nm; in data set [1] (UV-Vis in ethanol), 439 nm. The λem in data set [2] (in PBS) came to 553 nm; in data set [2] (in ethanol) it was 538 nm.
With `CN(C1=Cc2[o+]c3cc(OCCCCCC(=O)O)ccc3cc2C(C)(C)C1)c1ccccc1.[Cl-]` [Compound 18, 6-[[8,8-dimethyl-6-(N-methylanilino)-7H-xanthene-10-ium-3-yl]oxy]hexanoic Acid Chloride Salt], the λmax in data set [1] (UV-Vis in ethanol) is 452 nm and 469 nm. The same compound showed a λem in data set [2] (in ethanol) of 520 nm.
